The values that follow come from patent publication US7482144B2, “Method for the production of xylitol” (priority 2000, dated 2009).

Each structure is given as a SMILES string.

This test deals with β-xylosidase. Briefly: Possible inhibiting effect of xylitol on β-xylosidase. The test is classed as biochemical. As to the method: 300 nkat concentrated β-xylosidase was incubated with 0, 1, 5, 10, 50, 100, 200 and 300 g/l of xylitol at 28° C. Samples were taken after 0, 0.5, 1, 2, 4, 6, 8, 24, 48 and 72 hours incubation and stored at −20° C. The activity of β-xylosidase was measured as described in Poutanen and Puls (1988) Appl. Microbiol. Biotechnol. 28:425-432. The activity of β-xylosidase remained stable in all the samples taken and thus it is not inhibited by xylitol.

Consider `OC[C@@H](O)[C@H](O)[C@@H](O)CO` [xylitol], for which the “Inhibition of β-xylosidase activity by xylitol” value (300 nkat β-xylosidase, 0-300 g/l xylitol, 28° C., 0-72 hours) is listed as “not inhibited”. In addition, the “Inhibition of xylanolytic activity by xylitol” value (studies conducted so far) was “has not been shown to inhibit”.
